Data published in US20090123979A1, “Methods of reducing the inhibitory effect of a tannin on the enzymatic hydrolysis of cellulosic material” (Novozymes, Inc., priority 2007, published 2009).

Experiments:
[1] = target: T1, Cellulolytic Enzyme Composition #1; experiment: PASC hydrolysis by Cellulolytic Enzyme Composition #1 with tannic acid; format: biochemical, Trichoderma reesei; details: mean ± SD, 0.01 g enzyme per liter, pH 5.0, 50° C., read-out: I50 (inhibitor concentration leading to 50% loss of hydrolysis rate)
T1 construct: other: PASC hydrolysis; mean ± SD; 0.01 g enzyme; Dixon plot linear regression intercept (1/Rate); other: AVICEL; rate from hydrolysis difference (%) at 0 and 6 hours; rate from hydrolysis difference; fused on or other part: The A. oryzae beta-glucosidase is the mature chain secreted behind the Humicola insolens endoglucanase V signal peptide, which is cleaved off
Source text: Initial hydrolysis rates were obtained from the first two hydrolysis time points (i.e., soluble sugar measurements) (with <20% hydrolysis extent in general, rate=(hydrolysis difference)/(time difference)). Double-reciprocal plots (1/(initial rate) vs 1/[cellulose] as function of tannic acid concentration) indicated a “mixed” type inhibition, but their complexity prevented extraction of simple inhibitor constants. Initial rate vs tannic acid concentration yielded an I50 (inhibitor concentration leading to 50% loss of hydrolysis rate) of 0.2±0.1 or 0.27±0.07 mM on PASC or AVICEL® hydrolysis, respectively

[2] = target: T2, Trichoderma reesei CEL7A cellobiohydrolase I (Trichoderma reesei, UniProt P62694, INS458P/R459P); experiment: PASC hydrolysis by CEL7A cellobiohydrolase I with tannic acid; format: biochemical
T2 construct: made in house
T2 sequence (P62694 other isoform, or with tags, fused parts or gaps INS458P/R459P): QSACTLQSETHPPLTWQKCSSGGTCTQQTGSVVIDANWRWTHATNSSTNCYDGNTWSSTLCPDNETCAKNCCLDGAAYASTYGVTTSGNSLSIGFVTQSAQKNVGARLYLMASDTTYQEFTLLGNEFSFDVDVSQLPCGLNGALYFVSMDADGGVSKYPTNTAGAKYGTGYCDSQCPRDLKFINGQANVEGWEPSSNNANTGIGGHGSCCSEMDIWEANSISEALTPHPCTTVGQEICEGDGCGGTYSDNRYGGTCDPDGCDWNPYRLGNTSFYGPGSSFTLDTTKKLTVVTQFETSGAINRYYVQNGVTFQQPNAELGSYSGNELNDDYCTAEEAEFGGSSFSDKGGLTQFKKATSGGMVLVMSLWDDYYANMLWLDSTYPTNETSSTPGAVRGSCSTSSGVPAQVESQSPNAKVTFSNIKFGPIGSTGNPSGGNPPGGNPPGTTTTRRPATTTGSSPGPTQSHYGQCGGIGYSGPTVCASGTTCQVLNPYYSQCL
Protocol: The inhibitory effect of tannic acid was determined on Trichoderma reesei CEL7A cellobiohydrolase 1, Trichoderma reesei CEL6A cellobiohydrolase II, Trichoderma reesei CEL7B endoglucanase 1, and Trichoderma reesei CEL5A endoglucanase II using PASC as substrate.
To quantify the inhibition, tannic acid was evaluated in the hydrolysis of PASC.

[3] = target: T3, Trichoderma reesei CEL5A endoglucanase II (Trichoderma reesei, UniProt P07982); experiment: CMC hydrolysis by CEL5A endoglucanase II with tannic acid; format: biochemical; details: 1 mM tannic acid, 50° C., 4 hours
T3 construct: made in house
T3 sequence (P07982 22-418): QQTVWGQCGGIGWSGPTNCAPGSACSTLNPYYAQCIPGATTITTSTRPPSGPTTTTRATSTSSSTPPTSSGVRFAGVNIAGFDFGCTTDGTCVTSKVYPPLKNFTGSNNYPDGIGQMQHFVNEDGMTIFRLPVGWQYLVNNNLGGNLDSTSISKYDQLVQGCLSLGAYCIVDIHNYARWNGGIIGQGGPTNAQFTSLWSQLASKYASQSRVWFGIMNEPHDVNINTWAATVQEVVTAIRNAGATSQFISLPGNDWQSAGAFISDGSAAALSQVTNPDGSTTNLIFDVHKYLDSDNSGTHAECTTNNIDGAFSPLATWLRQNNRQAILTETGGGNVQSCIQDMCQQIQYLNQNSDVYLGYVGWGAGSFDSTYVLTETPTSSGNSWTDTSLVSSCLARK
Protocol: The effect of tannic acid on Trichoderma reesei CEL7B endoglucanase I and Trichoderma reesei CEL5A endoglucanase II was also evaluated using carboxymethylcellulose (CMC) as substrate. The hydrolysis reactions were conducted in duplicate using the “mini-plate-scale” hydrolysis procedure described in Example 33, except that 1 mM tannic acid and 10 to 20 g of carboxymethylcellulose (CMC) and 1 to 20 mg of enzyme per liter 50 mM sodium acetate pH 5.0 were used at 50° C. for 4 hours. Soluble reducing sugars were analyzed by a p-hydroxybenzoic acid hydrazide (PHBAH) assay according to the method of Lever, 1972, Anal. Biochem. 47: 273-279, instead of by HPLC as described in Examples 30 and 33. Reactions without the addition of the enzymes served as controls to correct background absorption. Spectrophotometric measurements were performed using a SPECTRAMAX™ 340PC reader (Molecular Devices Corp., Sunnyvale, Calif., USA) with COSTAR® 96-well microplates (Cole-Parmer Instrument Co, Vernon Hills, Ill., USA).

## O=C(OC[C@H]1O[C@@H](OC(=O)c2cc(O)c(O)c(OC(=O)c3cc(O)c(O)c(O)c3)c2)[C@H](OC(=O)c2cc(O)c(O)c(OC(=O)c3cc(O)c(O)c(O)c3)c2)[C@@H](OC(=O)c2cc(O)c(O)c(OC(=O)c3cc(O)c(O)c(O)c3)c2)[C@@H]1OC(=O)c1cc(O)c(O)c(OC(=O)c2cc(O)c(O)c(O)c2)c1)c1cc(O)c(O)c(OC(=O)c2cc(O)c(O)c(O)c2)c1 [tannic acid, Tannic acid]
[1]
  IC50: 200 ± 100 µM
[2]
  IC50: ~1000 µM
[2]; 1 mM tannic acid, 2 g PASC per liter, over 4 hours
  effect on PASC hydrolysis by CEL7A cellobiohydrolase I: significantly inhibited
[2]; PASC, 0.1 to 0.7 mM tannic acid
  type of inhibition (double reciprocal plots), CEL7A CBHI: mixed
[3]
  effect on CMC hydrolysis by CEL5A endoglucanase II: significantly inhibited
